Experimental findings from US8802675B2, “Neuroprotective multifunctional compounds and pharmaceutical compositions comprising them” (priority 2009, dated 2014) are described below.

One assay addresses T1, rat brain MAO-B (Rattus norvegicus, UniProt P19643).
T1 construct: from tissue; host or cells: rat brain homogenate
T1 sequence (P19643 1-520): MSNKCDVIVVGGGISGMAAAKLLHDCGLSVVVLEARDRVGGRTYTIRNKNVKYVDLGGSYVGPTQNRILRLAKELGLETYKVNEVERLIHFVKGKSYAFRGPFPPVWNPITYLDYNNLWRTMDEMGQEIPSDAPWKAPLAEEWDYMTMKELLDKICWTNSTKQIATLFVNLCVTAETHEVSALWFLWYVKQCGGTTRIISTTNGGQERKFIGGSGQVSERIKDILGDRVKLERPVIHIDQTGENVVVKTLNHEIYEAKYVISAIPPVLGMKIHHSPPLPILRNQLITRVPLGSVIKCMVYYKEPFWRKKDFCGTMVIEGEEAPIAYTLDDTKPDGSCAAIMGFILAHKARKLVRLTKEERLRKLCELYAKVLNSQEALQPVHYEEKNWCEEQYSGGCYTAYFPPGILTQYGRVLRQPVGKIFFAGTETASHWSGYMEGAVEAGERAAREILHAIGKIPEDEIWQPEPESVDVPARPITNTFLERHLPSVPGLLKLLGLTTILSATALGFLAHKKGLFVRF
The experiment in a line: biochemical. To be noted: for inhibition at 10 µM: read-out: percent inhibition MAO-B. Here is the method:
(§1) Rats were decapitated and the brains were quickly taken into a pre-weighted ice-cold sucrose buffer (10 mM Tris-HCl buffer, pH 7.4, containing 0.32 M sucrose), and their weights were measured. The brains were homogenized at 0-4° C. in 0.32 M sucrose (one part tissue to 20 parts sucrose) in a Teflon glass homogenizer. The resultant homogenates were used to determine MAO activity. Protein concentration was determined with Bradford reagent at 595 nm, using bovine serum albumin as a standard.
(§2) The activity of MAO-A and MAO-B were determined by the adapted method of Tipton & Youdim (Tipton et al. 1983). Briefly, the multifunctional compound tested was added to a suitable dilution of the enzyme preparation (70 μg MAO-B and 150 μg MAO-A) in 0.05 M phosphate buffer (pH 7.4). The mixture was incubated together with 0.05 μM 1-deprenyl, a specific inhibitor of MAO-B (for determination of MAO-A activity in the presence of the test compound) or 0.05 μM clorgyline a specific inhibitor of MAO-A (for determination of MAO-B activity). […] The reaction was stopped with 2M ice-cold citric acid, and the radioactive metabolites (5-hydroxytryptaldehyde and phenylacetaldehyde) were extracted by addition of 2 ml of ethylacetate/toluene (1:1 vol/vol). The radioactivity contained in the organic phase was determined by liquid-scintillation counting in cpm units.
(§3) MAO-A and MAO-B activities were determined in rat brain homogenate in vitro following incubation with varying concentrations of the test compounds.
(§4) The results are the mean SEM, n=3 in triplicates.

For another assay, the target named is T2, rat brain MAO-A (Rattus norvegicus, UniProt P21396).
T2 construct: from tissue; host or cells: rat brain homogenate
T2 sequence (P21396 1-526): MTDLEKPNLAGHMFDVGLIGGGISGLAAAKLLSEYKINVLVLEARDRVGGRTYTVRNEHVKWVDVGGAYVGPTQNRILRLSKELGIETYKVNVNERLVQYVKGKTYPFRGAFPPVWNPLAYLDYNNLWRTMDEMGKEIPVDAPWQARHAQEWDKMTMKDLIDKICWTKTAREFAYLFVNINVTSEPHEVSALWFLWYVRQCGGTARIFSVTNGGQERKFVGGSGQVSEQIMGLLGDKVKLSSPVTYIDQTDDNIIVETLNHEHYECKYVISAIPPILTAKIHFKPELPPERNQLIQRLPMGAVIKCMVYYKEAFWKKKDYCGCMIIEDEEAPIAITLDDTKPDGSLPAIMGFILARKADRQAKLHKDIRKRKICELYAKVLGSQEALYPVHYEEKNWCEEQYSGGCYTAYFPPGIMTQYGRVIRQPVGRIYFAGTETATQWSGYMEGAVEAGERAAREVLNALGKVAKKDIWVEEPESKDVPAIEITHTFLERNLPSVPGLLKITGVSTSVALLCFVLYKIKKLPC
The experiment in a line: biochemical. Here is the method:
as §1, §2, §3, §4

Assay [1] has as its target T3, butyrylcholinesterase (BuChE) (Rattus norvegicus, UniProt Q9JKC1).
T3 construct: total cholinesterase (ChE) and butyrylcholinesterase (BuChE) activities in rat brain homogenates; from tissue; host or cells: brain homogenate (10% w/v) of adult Wistar rats
The assay can be described thus: Butyrylcholinesterase inhibition in rat brain homogenates (Ellman). Type of assay: biochemical. To be noted: mean SEM, n=3 in triplicates. Here is the method: Cholinesterase activity was determined in rat brain homogenate following incubation with varying concentrations of the multifunctional pro-chelators of the invention (also referred to herein as “carbamates”).
Ellman's colorimetric method was adapted for determination of total cholinesterase (ChE) and butyrylcholinesterase (BuChE) activities in rat brain homogenates. Brain tissue from adult Wistar rats was homogenized at 2% w/v (or 10% w/v, for BuChE) in 0.1 M sodium phosphate buffer, pH 7.4, with added NaCl 58.5 g/l and Triton X-100 0.05% v/v. Aliquots of homogenate (20 μl) were incubated with the test compounds for designed time intervals in phosphate buffer pH 7.4, before addition of 5,5′-dithiobis(2-nitrobenzoic) acid and either 1 mM acetylthiocholine iodide or 10 mM butyrylthiocholine iodide (Sigma, St. Louis, Mo.). The reaction was run at 37° C. in a final volume of […] in 96-well microplates and was followed at 412 nm for 5 min with a plate reader. In every experiment, cholinesterase-independent (nonspecific) substrate hydrolysis was determined by including one experimental group treated with tacrine 30 μM. Appropriate tissue and reagent blanks were also included. Reaction velocities were determined in three or four replicates per condition; these were averaged and expressed as percent activity relative to control (solvent), after subtracting the rate of nonspecific hydrolysis.
The results are the mean SEM, n=3 in triplicates. ND—not determined.
On the technique in general: In Ellman's method for cholinesterases, released thiocholine reacts with DTNB.

Setting [2] is: IC50 MAO-A, rat brain homogenate in vitro, mean SEM, n=3 in triplicates.
[3] abbreviates: IC50 MAO-B, rat brain homogenate in vitro, mean SEM, n=3 in triplicates.

Several values for one entry are separate records, joined by “and”; a condition that tells them apart may be missing. Identical values can stand only once. Like-named read-outs stand apart in the source and are kept apart here. Bounds are passed on as bounds.

What is called inhibition is the change of the read-out against control, counted positive when it falls. As usually defined, the IC50 is the midpoint of a concentration-inhibition curve. A higher IC50 goes with lower potency.

T3 sequence (Q9JKC1 24-597): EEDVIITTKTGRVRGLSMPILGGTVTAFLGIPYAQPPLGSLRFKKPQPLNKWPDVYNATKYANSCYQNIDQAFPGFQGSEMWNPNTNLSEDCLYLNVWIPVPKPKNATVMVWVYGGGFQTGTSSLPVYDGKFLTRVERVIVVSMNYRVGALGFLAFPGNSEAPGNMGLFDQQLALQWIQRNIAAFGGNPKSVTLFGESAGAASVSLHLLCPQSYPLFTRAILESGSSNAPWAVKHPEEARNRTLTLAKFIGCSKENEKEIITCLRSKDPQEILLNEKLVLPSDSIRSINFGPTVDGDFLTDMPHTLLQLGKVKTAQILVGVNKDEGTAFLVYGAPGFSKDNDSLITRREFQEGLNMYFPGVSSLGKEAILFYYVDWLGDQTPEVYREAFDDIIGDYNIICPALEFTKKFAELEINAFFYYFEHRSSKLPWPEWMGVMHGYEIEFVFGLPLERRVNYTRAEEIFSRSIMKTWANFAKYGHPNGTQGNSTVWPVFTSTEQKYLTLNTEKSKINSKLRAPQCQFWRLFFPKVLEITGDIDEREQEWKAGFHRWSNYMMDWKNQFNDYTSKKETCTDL

As for `C#CCN(C)Cc1ccc(OC(=O)N(C)CC)c2ncccc12` [Compound 3, 5-((methyl(propargyl)amino)methyl)quinolin-8-yl ethyl(methyl)carbamate], at rat brain MAO-B, the inhibition at 10 µM came to 9%. The IC50 against rat brain MAO-A (setting [2]) is below 0.1 µM; in assay [1], 60.7 ± 5.33 µM.

Turning to `C#CCN(C)Cc1ccc(OC(=O)N2CCCC2)c2ncccc12` [Compound 5, 5-((methyl(propargyl)amino)methyl)quinolin-8-yl pyrrolidine-1-carboxylate], the IC50 on rat brain MAO-B (setting [3]) is 5.06 µM and 5.6 µM; against rat brain MAO-A (setting [2]), 0.0047 to 0.02 µM and 0.0049 µM; in assay [1], 31.2 ± 6.1 µM.

For the compound `C#CCN(C)Cc1ccc(OC(=O)N2CCN(Cc3ccccc3)CC2)c2ncccc12` [Compound 13, 5-((methyl(propargyl)amino)methyl)quinolin-8-yl 4-benzyl piperazine-1-carboxylate], the IC50 is 0.084 µM on rat brain MAO-B (setting [3]); 0.0047 to 0.02 µM and 0.02 µM against rat brain MAO-A (setting [2]); 46 ± 3.5 µM in assay [1].

Take `C#CCC1CCN(Cc2ccc(OC(=O)N(C)C)c3ncccc23)CC1` [Compound 23, 5-((4-(propargyl)piperidin-1-yl)methyl)quinolin-8-yl dimethylcarbamate]: the “inhibitory effect on MAO-B” value at rat brain MAO-B (rat brain homogenate) is “minor to none inhibitory effects”. Further, the values for the inhibition at 10 µM on rat brain MAO-B and at rat brain MAO-A (read-out: percent inhibition MAO-A) were 3% and 13%, respectively. Also, at rat brain MAO-A (rat brain homogenate), the “inhibitory effect on MAO-A” value is recorded as “minor to none inhibitory effects”. For the same compound, in assay [1], 42.6 ± 6.67 µM corresponded to half-maximal inhibition (IC50).

For the compound `C#CCN(C)Cc1ccc(O)c2ncccc12` [M30, reference compound], the half-maximal inhibitory concentration (IC50) on rat brain MAO-B is 0.057 ± 0.01 µM; on rat brain MAO-A it was 0.037 ± 0.02 µM.
